Molecules are shown by their SMILES.

What is called IC50 is the concentration that inhibits the measured activity by half.

The target in experiment [1] is Protein kinase C delta type (Homo sapiens, UniProt Q05655). Description: Inhibition of PKCdelta.
Experiment [2] deals with Vascular endothelial growth factor receptor 2 (Homo sapiens, UniProt P35968). Description: Inhibition of KDR.
For a further experiment, the system named is Rattus norvegicus. Briefly: Suppression of paw swelling in adjuvant arthritis Lewis rat model at 50 mg/kg, po BID.
Experiment [3] addresses T1, Tyrosine-protein kinase JAK3 (Homo sapiens, UniProt P52333).
T1 sequence (P52333 whole entry): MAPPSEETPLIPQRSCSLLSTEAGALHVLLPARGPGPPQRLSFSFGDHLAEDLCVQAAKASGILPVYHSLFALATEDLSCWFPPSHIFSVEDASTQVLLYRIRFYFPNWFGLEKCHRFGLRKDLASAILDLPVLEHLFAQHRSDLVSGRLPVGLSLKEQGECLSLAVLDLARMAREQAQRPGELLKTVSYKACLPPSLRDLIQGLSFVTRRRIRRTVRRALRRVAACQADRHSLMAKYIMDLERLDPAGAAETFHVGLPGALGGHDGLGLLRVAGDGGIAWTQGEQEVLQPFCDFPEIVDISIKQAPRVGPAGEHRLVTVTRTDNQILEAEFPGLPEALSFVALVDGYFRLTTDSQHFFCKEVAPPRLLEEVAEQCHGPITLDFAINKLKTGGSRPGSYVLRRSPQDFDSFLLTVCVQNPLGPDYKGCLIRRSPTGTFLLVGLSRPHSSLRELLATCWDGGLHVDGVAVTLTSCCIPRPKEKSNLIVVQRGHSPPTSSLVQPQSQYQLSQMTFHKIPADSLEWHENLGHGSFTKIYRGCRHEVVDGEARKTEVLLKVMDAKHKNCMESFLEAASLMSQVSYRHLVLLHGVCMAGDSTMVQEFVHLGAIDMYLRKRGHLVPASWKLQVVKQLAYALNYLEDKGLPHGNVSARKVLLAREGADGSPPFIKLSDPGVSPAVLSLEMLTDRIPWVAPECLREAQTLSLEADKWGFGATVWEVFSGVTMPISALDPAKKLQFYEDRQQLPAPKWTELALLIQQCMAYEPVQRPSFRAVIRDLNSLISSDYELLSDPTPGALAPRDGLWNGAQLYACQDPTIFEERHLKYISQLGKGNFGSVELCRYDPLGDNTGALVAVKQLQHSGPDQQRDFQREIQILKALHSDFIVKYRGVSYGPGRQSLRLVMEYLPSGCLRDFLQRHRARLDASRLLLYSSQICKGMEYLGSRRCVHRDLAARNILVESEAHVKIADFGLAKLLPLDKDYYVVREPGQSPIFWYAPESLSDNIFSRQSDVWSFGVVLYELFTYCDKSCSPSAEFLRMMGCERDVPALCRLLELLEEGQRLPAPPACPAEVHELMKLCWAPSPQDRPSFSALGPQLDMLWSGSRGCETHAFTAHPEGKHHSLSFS
Description: Inhibition of JAK3.

In experiment [4] the target is T2, Tyrosine-protein kinase ZAP-70 (Homo sapiens, UniProt P43403).
T2 sequence (P43403 whole entry): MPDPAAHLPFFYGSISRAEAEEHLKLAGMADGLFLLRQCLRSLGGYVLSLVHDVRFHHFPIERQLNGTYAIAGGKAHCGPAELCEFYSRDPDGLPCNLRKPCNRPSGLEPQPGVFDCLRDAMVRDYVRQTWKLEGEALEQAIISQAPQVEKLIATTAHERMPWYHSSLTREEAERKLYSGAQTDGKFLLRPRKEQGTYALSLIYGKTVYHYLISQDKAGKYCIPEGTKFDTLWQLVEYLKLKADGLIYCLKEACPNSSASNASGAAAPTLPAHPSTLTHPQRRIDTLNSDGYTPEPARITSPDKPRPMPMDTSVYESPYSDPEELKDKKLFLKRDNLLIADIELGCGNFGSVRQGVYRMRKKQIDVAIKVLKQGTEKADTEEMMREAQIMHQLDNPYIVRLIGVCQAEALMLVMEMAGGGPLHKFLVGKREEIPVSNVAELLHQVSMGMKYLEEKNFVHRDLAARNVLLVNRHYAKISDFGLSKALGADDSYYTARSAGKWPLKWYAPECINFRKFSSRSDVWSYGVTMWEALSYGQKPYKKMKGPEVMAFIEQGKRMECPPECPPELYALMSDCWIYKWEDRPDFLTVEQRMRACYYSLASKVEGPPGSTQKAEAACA
Description: Inhibition of Zap70.

Chain of Protein kinase C delta type (Q05655 whole entry): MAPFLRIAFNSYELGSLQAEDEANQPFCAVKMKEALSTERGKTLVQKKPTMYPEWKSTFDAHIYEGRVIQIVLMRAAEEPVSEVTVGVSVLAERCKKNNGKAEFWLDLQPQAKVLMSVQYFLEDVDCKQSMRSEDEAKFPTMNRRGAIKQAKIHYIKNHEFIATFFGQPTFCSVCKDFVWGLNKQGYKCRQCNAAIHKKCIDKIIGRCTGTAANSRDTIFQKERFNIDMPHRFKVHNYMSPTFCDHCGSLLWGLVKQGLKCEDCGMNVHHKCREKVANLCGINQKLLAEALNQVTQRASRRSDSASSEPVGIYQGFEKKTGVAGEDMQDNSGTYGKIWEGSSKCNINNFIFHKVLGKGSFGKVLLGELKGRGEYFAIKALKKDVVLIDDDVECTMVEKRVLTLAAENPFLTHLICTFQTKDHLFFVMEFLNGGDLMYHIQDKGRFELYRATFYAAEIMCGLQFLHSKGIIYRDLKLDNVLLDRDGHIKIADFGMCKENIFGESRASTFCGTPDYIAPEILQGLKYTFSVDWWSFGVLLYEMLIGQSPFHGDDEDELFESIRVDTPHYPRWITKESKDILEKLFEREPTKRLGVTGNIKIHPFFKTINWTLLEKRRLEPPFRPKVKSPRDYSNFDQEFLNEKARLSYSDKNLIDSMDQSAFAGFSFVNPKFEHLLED
Chain of Vascular endothelial growth factor receptor 2 (P35968 whole entry): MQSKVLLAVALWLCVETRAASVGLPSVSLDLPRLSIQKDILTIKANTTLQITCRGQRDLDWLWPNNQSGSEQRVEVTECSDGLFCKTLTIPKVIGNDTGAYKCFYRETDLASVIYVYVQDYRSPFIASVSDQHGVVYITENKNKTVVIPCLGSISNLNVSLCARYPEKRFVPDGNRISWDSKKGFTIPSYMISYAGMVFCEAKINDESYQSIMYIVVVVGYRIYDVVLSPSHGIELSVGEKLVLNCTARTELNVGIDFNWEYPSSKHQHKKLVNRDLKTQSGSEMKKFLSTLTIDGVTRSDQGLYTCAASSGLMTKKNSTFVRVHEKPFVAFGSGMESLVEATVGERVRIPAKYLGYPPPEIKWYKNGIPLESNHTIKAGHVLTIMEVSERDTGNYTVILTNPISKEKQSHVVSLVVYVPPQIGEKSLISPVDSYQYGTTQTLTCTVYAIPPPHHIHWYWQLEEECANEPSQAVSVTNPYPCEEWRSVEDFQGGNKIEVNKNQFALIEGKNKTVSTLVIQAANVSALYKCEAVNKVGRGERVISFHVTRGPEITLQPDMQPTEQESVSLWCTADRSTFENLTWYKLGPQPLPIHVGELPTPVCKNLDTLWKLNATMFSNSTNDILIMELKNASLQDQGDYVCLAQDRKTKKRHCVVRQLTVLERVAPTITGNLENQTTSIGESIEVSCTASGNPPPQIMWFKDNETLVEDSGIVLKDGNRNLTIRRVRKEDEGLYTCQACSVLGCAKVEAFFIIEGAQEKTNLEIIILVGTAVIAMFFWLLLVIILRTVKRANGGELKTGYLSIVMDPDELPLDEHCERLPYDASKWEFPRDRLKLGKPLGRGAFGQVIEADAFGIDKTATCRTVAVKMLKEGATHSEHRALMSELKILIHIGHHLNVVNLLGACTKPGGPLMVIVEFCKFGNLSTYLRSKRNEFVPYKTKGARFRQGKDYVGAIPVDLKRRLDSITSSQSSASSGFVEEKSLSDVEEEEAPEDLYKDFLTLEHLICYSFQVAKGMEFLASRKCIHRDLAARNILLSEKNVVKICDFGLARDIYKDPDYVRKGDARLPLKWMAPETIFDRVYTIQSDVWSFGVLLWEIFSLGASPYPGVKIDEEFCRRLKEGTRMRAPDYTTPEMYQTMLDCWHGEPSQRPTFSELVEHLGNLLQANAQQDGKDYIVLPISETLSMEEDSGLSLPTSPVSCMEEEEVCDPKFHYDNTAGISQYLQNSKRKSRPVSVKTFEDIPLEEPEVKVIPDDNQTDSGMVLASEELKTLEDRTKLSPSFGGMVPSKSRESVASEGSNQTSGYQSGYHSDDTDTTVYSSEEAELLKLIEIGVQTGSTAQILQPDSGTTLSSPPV

For `CONC(=O)c1ccc(C)c(Nc2nc(N(C)CC(C)(C)C)nc(N3CCCN(C)CC3)n2)c1`, the concentration for half-maximal inhibition (IC50) was greater than 10 µM in experiment [1], greater than 10 µM in experiment [2], greater than 10 µM in experiment [3] and greater than 50 µM in experiment [4]. Also, the Activity with Rattus norvegicus is recorded as 50%.

These data come from ChEMBL document CHEMBL1149254, “The discovery of orally active triaminotriazine aniline amides as inhibitors of p38 MAP kinase” (J Med Chem, 2004).
